This experiment addresses T1, PSMA-expressing LNCaP cells (Homo sapiens, UniProt Q04609).
T1 construct: PSMA-expressing LNCaP cells; endogenous in cells; host or cells: LNCaP
Description: Binding competition assay against 3H-PSMA-617 on LNCaP cells. The conditions noted are these: for remaining activity at 0.01 µM / remaining activity at 0.1 µM: LNCaP cells, 10 nM 3H-PSMA-617, 2 h at 37° C., triplicates; for remaining activity at 0.01 µM: competing non-radiolabeled compound 10 nM; for remaining activity at 0.1 µM: competing non-radiolabeled compound 100 nM; for competition against 3H-PSMA-617 on PSMA-expressing LNCaP cells (in words): comparison between examples. Here is the method: Cells were incubated at 37° C. and 5% CO2 over night. […] After addition of the compounds in growth media the cells were swiveled slightly on a shaker mixing for 10 min followed by incubation for 2 h at 37° C., 5% C02. Following the incubation time the supernatant was removed by pipetting and cells were washed twice with ice cold PBS (total of 800 μl). Cells were lysed in 500 μl of 0.3M NaOH (PanReac AppliChem ITW Reagents) by vigorous shaking for 15 min and the cell lysated pipetted into scintillator tubes (S207-[…]® Scintillation Vials 6.5 ml #S207, Simport). In the following the wells were washed with 500 μl PBS and the washing PBS added to the corresponding samples in the sincitallator tubes. To each sample in the scintillator tubes 4 mL of Ultima Gold liquid scintillation cocktail (Sigma-Aldrich #L8286) was added and the samples let stand for at least 30 min. Thereafter radioactivity was counted in a Tri-Carb Liquid Scinzillation Analyzer (Perkin Elmer).

T1 sequence (Q04609 whole entry): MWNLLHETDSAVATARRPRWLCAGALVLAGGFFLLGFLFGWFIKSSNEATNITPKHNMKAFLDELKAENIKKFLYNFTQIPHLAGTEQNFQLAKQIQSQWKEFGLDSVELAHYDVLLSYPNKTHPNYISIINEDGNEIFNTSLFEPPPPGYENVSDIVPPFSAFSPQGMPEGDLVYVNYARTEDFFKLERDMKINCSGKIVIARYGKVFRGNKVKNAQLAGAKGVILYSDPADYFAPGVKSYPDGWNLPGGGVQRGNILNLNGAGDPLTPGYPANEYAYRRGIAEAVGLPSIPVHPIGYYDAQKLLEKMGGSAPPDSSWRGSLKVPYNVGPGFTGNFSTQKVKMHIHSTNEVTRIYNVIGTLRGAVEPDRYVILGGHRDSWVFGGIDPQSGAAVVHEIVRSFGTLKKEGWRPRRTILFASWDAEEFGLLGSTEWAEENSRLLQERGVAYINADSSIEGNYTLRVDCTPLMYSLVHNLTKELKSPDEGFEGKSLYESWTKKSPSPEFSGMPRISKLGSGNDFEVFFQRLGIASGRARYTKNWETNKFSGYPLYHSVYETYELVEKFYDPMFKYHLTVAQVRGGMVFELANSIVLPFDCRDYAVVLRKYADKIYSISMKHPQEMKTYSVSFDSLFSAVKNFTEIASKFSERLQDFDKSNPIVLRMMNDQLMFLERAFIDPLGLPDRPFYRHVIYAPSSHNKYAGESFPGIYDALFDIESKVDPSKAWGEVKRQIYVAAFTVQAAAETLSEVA

Usually remaining activity stands for the signal under treatment as a percentage of the control signal. For `NC[C@H]1CC[C@H](C(=O)N[C@@H](Cc2cccc(F)c2)C(=O)NCCCC[C@H](NC(=O)N[C@@H](CCC(=O)O)C(=O)O)C(=O)O)CC1` [Example 10-A, N^6—{N-[(1r,4S)-4-(aminomethyl)cyclohexane-1-carbonyl]-3-fluoro-L-phenylalanyl}-N^2-{[(1S)-1,3-dicarboxypropyl]carbamoyl}-L-lysine], the remaining activity at 0.01 µM stood at 91% and the remaining activity at 0.1 µM amounted to 60%.
The corresponding values for `NC[C@H]1CC[C@H](C(=O)N[C@H](Cc2ccc3cccnc3c2)C(=O)NCCCC[C@H](NC(=O)N[C@@H](CCC(=O)O)C(=O)O)C(=O)O)CC1` [Example 45-A, (3R,10S,14S)-1-[(1r,4S)-4-(aminomethyl)cyclohexyl]-1,4,12-trioxo-3-[(quinolin-7-yl)methyl]-2,5,11,13-tetraazahexadecane-10,14,16-tricarboxylic acid] are 93% and 87%.
The corresponding values for `O=C(O)CC[C@H](NC(=O)N[C@@H](CCCCNC(=O)[C@H](Cc1cc2ccccc2cn1)NC(=O)[C@H]1CC[C@H](CNC(=O)CN2CCN(CC(=O)O)CCN(CC(=O)O)CCN(CC(=O)O)CC2)CC1)C(=O)O)C(=O)O` [Example 36-B, N^6-{3-(isoquinolin-3-yl)-N-[(1r,4S)-4-({2-[4,7,10-tris(carboxymethyl)-1,4,7,10-tetraazacyclododecan-1-yl]acetamido}methyl)cyclohexane-1-carbonyl]-L-alanyl}-N^2-{[(1S)-1,3-dicarboxypropyl]carbamoyl}-L-lysine] are 92% and 29%.
Take `O=C(O)CC[C@H](NC(=O)N[C@@H](CCCCNC(=O)[C@H](Cc1ccc2ccccc2c1)NC(=O)c1ccc(CNC(=O)CN2CCN(CC(=O)O)CCN(CC(=O)O)CCN(CC(=O)O)CC2)nc1)C(=O)O)C(=O)O` [Example 26-B, (3S,10S,14S)-3-[(naphthalen-2-yl)methyl]-1,4,12-trioxo-1-[6-({2-[4,7,10-tris(carboxymethyl)-1,4,7,10-tetraazacyclododecan-1-yl]acetamido}methyl)pyridin-3-yl]-2,5,11,13-tetraazahexadecane-10,14,16-tricarboxylic acid]: the remaining activity at 0.01 µM is 53%; the remaining activity at 0.1 µM was found to be 6%; the “competition against 3H-PSMA-617 on PSMA-expressing LNCaP cells (in words)” value was “improved competition in comparison to the cyclohexyl examples 1-A and 1-B”.
In the case of `O=C(O)CC[C@H](NC(=O)N[C@@H](CCCCNC(=O)[C@H](Cc1ccc2ccccc2n1)NC(=O)c1ccc(CNC(=O)CN2CCN(CC(=O)O)CCN(CC(=O)O)CCN(CC(=O)O)CC2)cn1)C(=O)O)C(=O)O` [Example 34-B, N^6-{3-(quinolin-2-yl)-N-[5-({2-[4,7,10-tris(carboxymethyl)-1,4,7,10-tetraazacyclododecan-1-yl]acetamido}methyl)pyridine-2-carbonyl]-L-alanyl}-N^2-{[(1S)-1,3-dicarboxypropyl]carbamoyl}-L-lysine], the remaining activity at 0.01 µM turned out to be 43%, the remaining activity at 0.1 µM was determined as 6% and the “competition against 3H-PSMA-617 on PSMA-expressing LNCaP cells (in words)” value was “improved competition”.
Regarding `NCC1CCC(C(=O)N[C@@H](CCCNC(N)=O)C(=O)NCCCC[C@H](NC(=O)N[C@@H](CCC(=O)O)C(=O)O)C(=O)O)CC1` (stereo partly drawn) [Example 4-A, N^6—{N^2-[(1r,4S)-4-(aminomethyl)cyclohexane-1-carbonyl]-N^5-carbamoyl-L-ornithyl}-N^2-{[(1S)-1,3-dicarboxypropyl]carbamoyl}-L-lysine], the remaining activity at 0.01 µM amounted to 106% and the remaining activity at 0.1 µM came to 112%.
The corresponding values for `NC[C@H]1CC[C@H](C(=O)NC(Cc2ccc3ccccc3c2)C(=O)NCCCC[C@H](NC(=O)N[C@@H](CCC(=O)O)C(=O)O)C(=O)O)CC1` (stereo partly drawn) [Example 1-A, (3S,10S,14S)-1-[(1r,4S)-4-(aminomethyl)cyclohexyl]-3-[(naphthalen-2-yl)methyl]-1,4,12-trioxo-2,5,11,13-tetraazahexadecane-10,14,16-tricarboxylic acid] are 90% and 45%.
For `NC[C@H]1CC[C@H](CNC(=O)N[C@@H](Cc2ccc3ccccc3c2)C(=O)NCCCC[C@H](NC(=O)N[C@@H](CCC(=O)O)C(=O)O)C(=O)O)CC1` [Example 29-A, (5S,12S,16S)-1-[(1r,4S)-4-(aminomethyl)cyclohexyl]-5-[(naphthalen-2-yl)methyl]-3,6,14-trioxo-2,4,7,13,15-pentaazaoctadecane-12,16,18-tricarboxylic acid], in that order: 113% and 92%.
For `Cc1cc(C(=O)NCCN(CCCN(CCNC(=O)c2cc(C)n(CC(=O)O)c(=O)c2O)CCNC(=O)c2cc(C)n(CC(=O)NCc3ccc(C(=O)N[C@@H](Cc4ccc5ccccc5n4)C(=O)NCCCC[C@H](NC(=O)N[C@@H](CCC(=O)O)C(=O)O)C(=O)O)nc3)c(=O)c2O)CCNC(=O)c2cc(C)n(CC(=O)NCc3ccc(C(=O)NC(Cc4ccc5ccccc5n4)C(=O)NCCCC[C@H](NC(=O)N[C@@H](CCC(=O)O)C(=O)O)C(=O)O)nc3)c(=O)c2O)c(O)c(=O)n1CC(=O)O` (stereo partly drawn) [34-C dimer, (3S,10S,14S,3'S,10'S,14'S)-1,1′-(propane-1,3-diylbis{[(2-{[1-(carboxymethyl)-3-hydroxy-6-methyl-2-oxo-1,2-dihydropyridine-4-carbonyl]amino}ethyl)azanediyl]ethane-2,1-diylcarbamoyl(3-hydroxy-6-methyl-2-oxopyridine-4,1(2H)-diyl)(1-oxoethane-2,1-diyl)azanediylmethylenepyridine-5,2-diyl})bis{1,4,12-trioxo-3-[(quinolin-2-yl)methyl]-2,5,11,13-tetraazahexadecane-10,14,16-tricarboxylic acid}], in that order: 42% and 7%.
For the molecule `COc1c(C[C@@H](NC(=O)[C@H]2CC[C@H](CN)CC2)C(=O)NCCCC[C@H](NC(=O)N[C@@H](CCC(=O)O)C(=O)O)C(=O)O)ccc2ccccc12` [Example 33-A, (3R,10S,14S)-1-[(1r,4S)-4-(aminomethyl)cyclohexyl]-3-[(1-methoxynaphthalen-2-yl)methyl]-1,4,12-trioxo-2,5,11,13-tetraazahexadecane-10,14,16-tricarboxylic acid], the remaining activity at 0.01 µM worked out at 66% and the remaining activity at 0.1 µM came to 72%.
The corresponding values for `O=C(O)CC[C@H](NC(=O)N[C@@H](CCCCNC(=O)[C@H](Cc1ccc2ccccc2c1)NC(=O)NCC1CCNCC1)C(=O)O)C(=O)O` [Example 30-A, (5S,12S,16S)-5-[(naphthalen-2-yl)methyl]-3,6,14-trioxo-1-(piperidin-4-yl)-2,4,7,13,15-pentaazaoctadecane-12,16,18-tricarboxylic acid] are 136% and 96%.
For the molecule `NC[C@H]1CC[C@H](C(=O)N[C@H](Cc2ccc3c(c2)CCCO3)C(=O)NCCCC[C@H](NC(=O)N[C@@H](CCC(=O)O)C(=O)O)C(=O)O)CC1` [Example 38-A, N^6—{N-[(1r,4S)-4-(aminomethyl)cyclohexane-1-carbonyl]-3-(3,4-dihydro-2H-1-benzopyran-6-yl)-D-alanyl}-N^2-{[(1S)-1,3-dicarboxypropyl]carbamoyl}-L-lysine], the remaining activity at 0.01 µM is 140% and the remaining activity at 0.1 µM was 106%.
For `CNc1cc2ccccc2cc1C[C@@H](NC(=O)[C@H]1CC[C@H](CNC(=O)CN2CCN(CC(=O)O)CCN(CC(=O)O)CCN(CC(=O)O)CC2)CC1)C(=O)NCCCC[C@H](NC(=O)N[C@@H](CCC(=O)O)C(=O)O)C(=O)O` [Example 39-B, (3R,10S,14S)-3-{[3-(methylamino)naphthalen-2-yl]methyl}-1,4,12-trioxo-1-[(1r,4S)-4-({2-[4,7,10-tris(carboxymethyl)-1,4,7,10-tetraazacyclododecan-1-yl]acetamido}methyl)cyclohexyl]-2,5,11,13-tetraazahexadecane-10,14,16-tricarboxylic acid], in that order: 81% and 32%.
The corresponding values for `O=C(O)CC[C@H](NC(=O)N[C@@H](CCCCNC(=O)[C@@H](Cc1ccc2cccnc2c1)NC(=O)[C@H]1CC[C@H](CNC(=O)CN2CCN(CC(=O)O)CCN(CC(=O)O)CCN(CC(=O)O)CC2)CC1)C(=O)O)C(=O)O` [Example 45-B, (3R,10S,14S)-1,4,12-trioxo-3-[(quinolin-7-yl)methyl]-1-[(1r,4S)-4-({2-[4,7,10-tris(carboxymethyl)-1,4,7,10-tetraazacyclododecan-1-yl]acetamido}methyl)cyclohexyl]-2,5,11,13-tetraazahexadecane-10,14,16-tricarboxylic acid] are 90% and 47%.
The corresponding values for `CNc1cc(C[C@@H](NC(=O)[C@H]2CC[C@H](CNC(=O)CN3CCN(CC(=O)O)CCN(CC(=O)O)CCN(CC(=O)O)CC3)CC2)C(=O)NCCCC[C@H](NC(=O)N[C@@H](CCC(=O)O)C(=O)O)C(=O)O)cc2ccccc12` [Example 37-B, (3R,10S,14S)-3-{[4-(methylamino)naphthalen-2-yl]methyl}-1,4,12-trioxo-1-[(1r,4S)-4-({2-[4,7,10-tris(carboxymethyl)-1,4,7,10-tetraazacyclododecan-1-yl]acetamido}methyl)cyclohexyl]-2,5,11,13-tetraazahexadecane-10,14,16-tricarboxylic acid] are 55% and 11%.

The values are drawn from US20230072421A1, “TARGETED RADIOPHARMACEUTICALS FOR THE DIAGNOSIS AND TREATMENT OF PROSTATE CANCER” (Bayer AS, priority 2019, published 2023).
